Laboratory results published in patent US11254663B2 (BRISTOL-MYERS SQUIBB COMPANY, priority 2019, dated 2022).
Read-outs that look alike come from different tables or passages of the source.

Molecular target: FXR (Homo sapiens (Human), UniProt Q96RI1)
Assay: transient human FXR/Gal4-luciferase reporter assay
Assay type: cell-based
Method in brief: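 HEK293 cells stably carrying a 5×Gal4 response element–firefly luciferase reporter were transiently transfected overnight with a Gal4 DBD–human FXR LBD fusion plasmid. Compound was added in DMSO and cells were incubated overnight at 37 °C, 5% CO2. Activity was read as Steady-Glo luminescence.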

[1] = Gal4-hFXR fusion construct, HEK293 reporter cells, response relative to 8 μM GW-4064

Sequence of FXR (Q96RI1 262-486): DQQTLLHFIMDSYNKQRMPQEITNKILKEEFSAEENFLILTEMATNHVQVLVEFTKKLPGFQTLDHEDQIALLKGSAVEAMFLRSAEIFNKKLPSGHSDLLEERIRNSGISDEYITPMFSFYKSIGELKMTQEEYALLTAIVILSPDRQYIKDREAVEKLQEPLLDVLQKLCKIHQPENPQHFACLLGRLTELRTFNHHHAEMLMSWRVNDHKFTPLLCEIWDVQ

COc1nccc(-c2cccc(N(CC34CCC(c5nc(C6CC6)no5)(CC3)CC4)C(=O)C3CC(F)(F)C3)c2)n1 [Example 243, N-((4-(3-cyclopropyl-1,2,4-oxadiazol-5-yl)bicyclo[2.2.2]octan-1-yl)methyl)-3,3-difluoro-N-(3-(2-methoxypyrimidin-4-yl)phenyl)cyclobutane-1-carboxamide]
EC50 [1]: 428 nM

O=C(N(CC12CCC(c3noc(C4(C(F)(F)F)CC4)n3)(CC1)CC2)c1cccc(-c2cnc3nc(C4CC4)sc3c2)c1)C12CC(F)(C1)C2 [Example 526, N-(3-(2-cyclopropylthiazolo[4,5-b]pyridin-6-yl)phenyl)-3-fluoro-N-((4-(5-(1-(trifluoromethyl)cyclopropyl)-1,2,4-oxadiazol-3-yl)bicyclo[2.2.2]octan-1-yl)methyl) bicyclo[1.1.1]pentane-1-carboxamide]
EC50: 497 nM

O=C(N(CC12CCC(c3nc(C4CC4)no3)(CC1)CC2)c1cccc(-c2ccn3ncnc3c2)c1)C12CC(F)(C1)C2 [Example 298, N-(3-([1,2,4]triazolo[1,5-a]pyridin-7-yl)phenyl)-N-((4-(3-cyclopropyl-1,2,4-oxadiazol-5-yl)bicyclo[2.2.2]octan-1-yl)methyl)-3-fluorobicyclo[1.1.1]pentane-1-carboxamide]
EC50 [1]: 1680 nM

Cc1nc2ccc(-c3ccnc(N(CC45CCC(c6noc(C(C)(C)C)n6)(CC4)CC5)C(=O)C45CC(F)(C4)C5)c3)cc2s1 [Example 537, N-((4-(5-(tert-butyl)-1,2,4-oxadiazol-3-yl)bicyclo[2.2.2]octan-1-yl)methyl)-3-fluoro-N-(4-(2-methylbenzo[d]thiazol-6-yl)pyridin-2-yl)bicyclo[1.1.1]pentane-1-carboxamide]
EC50: 67 nM

CC(C)c1nc(C23CCC(CN(C(=O)C45CC(F)(C4)C5)c4cccc(-c5ccc(NS(C)(=O)=O)cc5)c4)(CC2)CC3)no1 [Example 430, 3-fluoro-N-((4-(5-isopropyl-1,2,4-oxadiazol-3-yl)bicyclo[2.2.2]octan-1-yl)methyl)-N-(4′-(methylsulfonamido)-[1,1′-biphenyl]-3-yl)bicyclo[1.1.1]pentane-1-carboxamide]
EC50 [1]: 40 nM

CC(C)(C#N)OC(=O)N(CC12CCC(c3noc(C(C)(C)F)n3)(CC1)CC2)c1cccc(-c2ccc(C(C)(C)O)cc2)c1 [Example 598, 2-cyanopropan-2-yl ((4-(5-(2-fluoropropan-2-yl)-1,2,4-oxadiazol-3-yl)bicyclo[2.2.2]octan-1-yl)methyl)(4′-(2-hydroxypropan-2-yl)-[1,1′-biphenyl]-3-yl) carbamate]
EC50 [1]: 29 nM

O=C(C1CC(O)(C(F)(F)F)C1)N(CC12CCC(NS(=O)(=O)C(F)(F)F)(CC1)CC2)c1cccc(-c2ccc(OC(F)F)cc2)c1 (stereo not drawn) [Example 603, (cis)-N-(4′-(difluoromethoxy)-[1,1′-biphenyl]-3-yl)-3-hydroxy-3-(trifluoromethyl)-N-((4-((trifluoromethyl)sulfonamido)bicyclo[2.2.2]octan-1-yl)methyl)cyclobutane-1-carboxamide]
EC50 [1]: 1820 nM

O=C(N(CC12CCC(c3nc(C(F)F)no3)(CC1)CC2)c1cccc(-c2cnc(C(F)(F)F)nc2)c1)C12CC(F)(C1)C2 [Example 467, N-((4-(3-(difluoromethyl)-1,2,4-oxadiazol-5-yl)bicyclo[2.2.2]octan-1-yl)methyl)-3-fluoro-N-(3-(2-(trifluoromethyl)pyrimidin-5-yl)phenyl)bicyclo[1.1.1]pentane-1-carboxamide]
EC50: 2110 nM

O=C(N(CC12CCC(c3nc(C4CC4)no3)(CC1)CC2)c1cccc(-c2ccc(C(F)(F)F)cc2)c1)C12CC(F)(C1)C2 [Example 253, N-((4-(3-cyclopropyl-1,2,4-oxadiazol-5-yl)bicyclo[2.2.2]octan-1-yl)methyl)-3-fluoro-N-(4′-(trifluoromethyl)-[1,1′-biphenyl]-3-yl)bicyclo[1.1.1]pentane-1-carboxamide]
EC50 [1]: 250 nM

Cc1nc2ccc(-c3cncc(N(CC45CCC(c6noc(C(C)(C)C)n6)(CC4)CC5)C(=O)C45CC(F)(C4)C5)c3)cc2s1 [Example 484, N-((4-(5-(tert-butyl)-1,2,4-oxadiazol-3-yl)bicyclo[2.2.2]octan-1-yl)methyl)-3-fluoro-N-(5-(2-methylbenzo[d]thiazol-6-yl)pyridin-3-yl)bicyclo[1.1.1]pentane-1-carboxamide]
EC50: 344 nM

CCOc1ccc(-c2cccc(N(CC34CCC(c5nc(C(C)C)no5)(CC3)CC4)C(=O)C34CC(F)(C3)C4)c2)cc1 [Example 375, N-(4′-ethoxy-[1,1′-biphenyl]-3-yl)-3-fluoro-N-((4-(3-isopropyl-1,2,4-oxadiazol-5-yl)bicyclo[2.2.2]octan-1-yl)methyl)bicyclo[1.1.1]pentane-1-carboxamide]
EC50 [1]: 61 nM

Cc1nc2ccc(-c3cccc(N(CC45CCC(c6ccc(C7(C#N)CC7)cc6)(CC4)OC5)C(=O)C45CC(F)(C4)C5)c3)cc2s1 [Example 346, N-((1-(4-(1-cyanocyclopropyl)phenyl)-2-oxabicyclo[2.2.2]octan-4-yl)methyl)-3-fluoro-N-(3-(2-methylbenzo[d]thiazol-6-yl)phenyl)bicyclo[1.1.1]pentane-1-carboxamide]
EC50 [1]: 181 nM

CCOc1ncc(-c2cccc(N(CC34CCC(c5noc(C(C)C)n5)(CC3)CC4)C(=O)C34CC(F)(C3)C4)c2)cn1 [Example 429, N-(3-(2-ethoxypyrimidin-5-yl)phenyl)-3-fluoro-N-((4-(5-isopropyl-1,2,4-oxadiazol-3-yl)bicyclo[2.2.2]octan-1-yl)methyl)bicyclo[1.1.1]pentane-1-carboxamide]
EC50 [1]: 46 nM

CCOc1ncc(-c2cccc(N(CC34CCC(c5cnc(C(F)(F)F)nc5)(CC3)OC4)C(=O)C34CC(F)(C3)C4)c2)cn1 [Example 418, N-(3-(2-ethoxypyrimidin-5-yl)phenyl)-3-fluoro-N-((1-(2-(trifluoromethyl)pyrimidin-5-yl)-2-oxabicyclo[2.2.2]octan-4-yl)methyl)bicyclo[1.1.1]pentane-1-carboxamide]
EC50 [1]: 2040 nM

O=C(N(CC12CCC(c3ccc(C(F)(F)F)cn3)(CC1)CC2)c1cccc(-c2ccc(OC(F)F)cn2)c1)C12CC(F)(C1)C2 [Example 495, N-(3-(5-(difluoromethoxy)pyridin-2-yl)phenyl)-3-fluoro-N-((4-(5-(trifluoromethyl)pyridin-2-yl)bicyclo[2.2.2]octan-1-yl)methyl)bicyclo[1.1.1]pentane-1-carboxamide]
EC50 [1]: 271 nM

CCOc1ccc(-c2cccc(N(CC34CCC(c5noc(C6(C)CC6)n5)(CC3)CC4)C(=O)C34CC(F)(C3)C4)c2)cc1 [Example 399, N-(4′-ethoxy-[1,1′-biphenyl]-3-yl)-3-fluoro-N-((4-(5-(1-methylcyclopropyl)-1,2,4-oxadiazol-3-yl)bicyclo[2.2.2]octan-1-yl)methyl)bicyclo[1.1.1]pentane-1-carboxamide]
EC50 [1]: 58 nM

COc1cc(-c2cccc(N(CC34CCC(c5nnc(C)s5)(CC3)CC4)C(=O)C3CC(F)(F)C3)c2)ccn1 [Example 234, 3,3-difluoro-N-(3-(2-methoxypyridin-4-yl)phenyl)-N-((4-(5-methyl-1,3,4-thiadiazol-2-yl)bicyclo[2.2.2]octan-1-yl)methyl)cyclobutane-1-carboxamide]
EC50 [1]: 1760 nM

NS(=O)(=O)c1cccc(-c2cccc(N(CC34CCC(c5nc(C6CC6)no5)(CC3)CC4)C(=O)C34CC(F)(C3)C4)c2)c1 [Example 257, N-((4-(3-cyclopropyl-1,2,4-oxadiazol-5-yl)bicyclo[2.2.2]octan-1-yl)methyl)-3-fluoro-N-(3′-sulfamoyl-[1,1′-biphenyl]-3-yl)bicyclo[1.1.1]pentane-1-carboxamide]
EC50 [1]: 521 nM

CS(=O)(=O)Nc1ccc(-c2cncc(N(CC34CCC(c5nc(C6CC6)no5)(CC3)CC4)C(=O)C34CC(F)(C3)C4)c2)cc1 [Example 427]
EC50 [1]: 671 nM

CC(C)c1nc(C23CCC(CN(C(=O)C45CC(F)(C4)C5)c4cccc(-c5cnc(C6CC6)nc5)c4)(CC2)CC3)no1 [Example 434, N-(3-(2-cyclopropylpyrimidin-5-yl)phenyl)-3-fluoro-N-((4-(5-isopropyl-1,2,4-oxadiazol-3-yl)bicyclo[2.2.2]octan-1-yl)methyl)bicyclo[1.1.1]pentane-1-carboxamide]
EC50 [1]: 57 nM

O=C(N(CC12CCC(c3ccc(C(F)(F)F)cn3)(CC1)CC2)c1cccc(-c2cnc(C(F)(F)F)nc2)c1)C12CC(F)(C1)C2 [Example 491, 3-fluoro-N-((4-(5-(trifluoromethyl)pyridin-2-yl)bicyclo[2.2.2]octan-1-yl)methyl)-N-(3-(2-(trifluoromethyl)pyrimidin-5-yl)phenyl)bicyclo[1.1.1]pentane-1-carboxamide]
EC50: 1630 nM

CC(C)Oc1ccc(-c2cc(N(CC34CCC(c5nc(C6CC6)no5)(CC3)CC4)C(=O)OC(C)(C)C(F)(F)F)ncc2F)cc1 [Example 617, 1,1,1-trifluoro-2-methylpropan-2-yl ((4-(3-cyclopropyl-1,2,4-oxadiazol-5-yl)bicyclo[2.2.2]octan-1-yl)methyl)(5-fluoro-4-(4-isopropoxyphenyl)pyridin-2-yl)carbamate]
EC50 [1]: 81 nM

CC(C)(C#N)Oc1ccc(-c2ccnc(N(CC34CCC(c5noc(C6(F)CC6)n5)(CC3)CC4)C(=O)OC(C)(C)C(F)(F)F)c2)cc1 [Example 625, 1,1,1-trifluoro-2-methylpropan-2-yl(4-(4-((2-cyanopropan-2-yl)oxy)phenyl)pyridin-2-yl) ((4-(5-(1-fluorocyclopropyl)-1,2,4-oxadiazol-3-yl)bicyclo[2.2.2]octan-1-yl)methyl) carbamate]
EC50 [1]: 18 nM

CC(C)c1noc(C23CCC(CN(C(=O)C45CC(F)(C4)C5)c4cccc(-c5ccc(C(F)(F)F)nc5)c4)(CC2)CC3)n1 [Example 388, 3-fluoro-N-((4-(3-isopropyl-1,2,4-oxadiazol-5-yl)bicyclo[2.2.2]octan-1-yl)methyl)-N-(3-(6-(trifluoromethyl)pyridin-3-yl)phenyl)bicyclo[1.1.1]pentane-1-carboxamide]
EC50 [1]: 906 nM
